Measured values as given in patent US12172965B2, “Drug conjugate comprising quinoline derivatives” (UNIVERSITE PARIS-SACLAY, priority 2018, dated 2024).
Where two headings read alike, the source gives them in different places. Non-standard residues stand in square brackets, D forms with d. Residues, ends and D or L forms follow the SMILES beside them. *: point of attachment. Dolaproine = CO[C@@H]([C@@H]1CCCN1)[C@@H](C)C(=O)O; Dil = CC[C@H](C)[C@H](NC)[C@@H](CC(=O)O)OC; X1 = C[C@@H](N*)[C@@H](O)c1ccccc1; NMeV = CN[C@H](C(=O)O)C(C)C

How the values were obtained:
[1] = test system: HCT116 (colorectal tumour); assay: Antiproliferative activity (IC50), CellTiter Glo, HCT116; type: cell-based, human
Excerpt: (§1) The IC50 (as per accepted terminology) activities of the compounds according to the invention 4-((3-amino-4-methoxyphenyl)(methyl)amino) quinoline-2-carbonitrile (ICQN-1); 5-(5-((2-cyanoquinolin-4-yl)(methyl)amino)-2-methoxyphenyl)-N-hydroxypent-4-ynamide (ICQN-2); and (E)-3-(5-((2-cyanoquinolin-4-yl)(methyl)amino)-2-methoxyphenyl)-N-hydroxyacrylamide (ICQN-3) were compared with compounds of the prior art and with a commercial and clinical reference compound, in particular MMAE (monomethylauristatin E). The IC50 activities were measured on various different cancer cell lines HCT116 (colorectal tumour), A549 (non-small cell lung cancer), NCI-N87 (gastric tumour), Mia-Paca-2 (pancreatic tumour), K562R (chronic myeloid leukemia), SKOV3 (ovarian tumour), SKBr3 (breast tumour, Her2 overexpression), MCF7 (breast tumour) and MDA-MB231 (breast tumour).
(§2) The cancer cell lines were obtained from the American Culture Collection (ATCC, Rockville, MD) or from the German collection of microorganisms and cell cultures of the Leibniz Institute (DSMZ, Braunschweig-Germany) or from the European collection of cell cultures (ECACC, England). The cancer cell lines were cultured according to the supplier's instructions.
(§3) The HCT-116 human colorectal carcinoma, SK-BR3 breast carcinoma, and SK-OV-3 ovarian carcinoma cells were cultured in Gibco McCoy's 5A medium supplemented with 10% foetal calf serum (FCS) and 1% glutamine.
(§4) The cells were counted using a Vi-cell XR (Beckman Coulter) and the cell viability was assessed by using 0.25% trypan blue dye exclusion assay. The cells were tested for the presence of mycoplasmas prior to the experiments with the Mycoplasma PCR detection kit (Applied Biological Materials Inc., Canada) according to the manufacturer's instructions, and only mycoplasma-free cells were used for the study. The cell lines were maintained at 37° C. in a humidified atmosphere containing 5% CO2.
(§5) After 24 hours of culturing, the cells were treated with the tested compounds at 10 different final concentrations. Each concentration was obtained from serial dilutions in culture medium starting from the stock solution. The control cells were treated with the carrier. The experiments were carried out in triplicate.
(§6) The measurements were performed after 72 hours of treatment using the CellTiter Glo assay (Promega) which makes it possible to measure through bioluminescence (quantification of adenosine triphosphate—ATP) the number of living cells, by using a PolarStar Omega microplate reader (BMG-Labtech).
(§7) The dose-response curves were plotted with the Graph Prism software application and the IC50 values were calculated using the Graph Prism software based on polynomial curves (four or five parameter logistic equations).

[2] = test system: A549 (non-small cell lung cancer); assay: Antiproliferative activity (IC50), CellTiter Glo, A549; type: cell-based
Excerpt: as §1, §2
(§8) The A549 lung carcinoma cells, K562R myeloid leukemia cells, and the NCI-N87 gastric carcinoma cells were cultured in Gibco Roswell Park Memorial Institute (RPMI) 1640 medium supplemented with 10% foetal calf serum (FCS) and 1% glutamine. The Mia-Paca2 carcinoma cells were cultured in Gibco Dulbecco's Modified Eagle Medium (DMEM) supplemented with 10% foetal calf serum (FCS) and 1% glutamine.
as §4, §5, §6, §7

NCI-N87 (gastric tumour) = assay: Antiproliferative activity (IC50), CellTiter Glo, NCI-N87; type: cell-based
Excerpt: as §1, §2, §8, §4, §5, §6, §7

[3] = test system: Mia-Paca-2 (pancreatic tumour); assay: Antiproliferative activity (IC50), CellTiter Glo, Mia-Paca-2; type: cell-based
Excerpt: as §1, §2, §8, §4, §5, §6, §7

[4] = test system: K562R (chronic myeloid leukemia); assay: Antiproliferative activity (IC50), CellTiter Glo, K562R; type: cell-based
Excerpt: as §1, §2, §8, §4, §5, §6, §7
The K562R (chronic myeloid leukemia) cells have an MDR profile that allows them to be resistant to several chemotherapeutic compounds including the reference compound MMAE.

SKOV3 (ovarian tumour) = assay: Antiproliferative activity (IC50), CellTiter Glo, SKOV3; type: cell-based, human
Excerpt: as §1, §2, §3, §4, §5, §6, §7

[5] = test system: SKBr3 (breast tumour, Her2 overexpression); assay: Antiproliferative activity (IC50), CellTiter Glo, SKBr3; type: cell-based, human
Excerpt: as §1, §2, §3, §4, §5, §6, §7

MDA-MB-231 cell line = conditions: published by Chen et al.; read-out: IC50 over the MDA-MB-231 cell line; cited from earlier work
MCF7 (breast tumour) = assay: Antiproliferative activity (IC50), CellTiter Glo, MCF7; type: cell-based; conditions: unconjugated; for IC50: free, 72 hours of treatment, read-out: MCF7 CI50
Excerpt: as §1, §2
(§9) The breast adenocarcinoma cells MDA-MB231 and MCF7 were cultured in Gibco RPMI 1640 culture medium supplemented with 10% foetal calf serum (FCS) and 1% glutamine.
as §4, §5, §6, §7

[6] = test system: MDA-MB231 (breast tumour); assay: Antiproliferative activity (IC50), CellTiter Glo, MDA-MB231; type: cell-based; conditions: unconjugated; for IC50: free, 72 hours of treatment, read-out: MDA-MB231 CI50
Excerpt: as §1, §2, §9, §4, §5, §6, §7

HCT116 cell line = conditions: comparison of molecules Ia and Ib; cited from earlier work
[7] = Homo sapiens, HCT-116, comparative data 13b / ICQN-1, unit inferred, read-out: HCT116 (antiproliferative activity, Table 3)
[8] = Homo sapiens, A549, comparative data 13b / ICQN-1, unit inferred, read-out: A549 (antiproliferative activity, Table 3)
[9] = Homo sapiens, NCI-N87, comparative data 13b / ICQN-1, unit inferred, read-out: NCI-N87 (antiproliferative activity, Table 3)
[10] = Homo sapiens, MIA PaCa-2, comparative data 13b / ICQN-1, unit inferred, read-out: Mia-Paca2 (antiproliferative activity, Table 3)
[11] = Homo sapiens, K-562R, comparative data 13b / ICQN-1, unit inferred, read-out: K562R (antiproliferative activity, Table 3)
[12] = Homo sapiens, SK-OV-3, comparative data 13b / ICQN-1, unit inferred, read-out: SKOV3 (antiproliferative activity, Table 3)
[13] = Homo sapiens, SK-BR-3, comparative data 13b / ICQN-1, unit inferred, read-out: SKBr3 (antiproliferative activity, Table 3)
[14] = ratio versus MMAE, unconjugated
[15] = ratio versus prior-art payload ICQO-1
[16] = Homo sapiens, NCI-N87, free, unconjugated, 72 hours of treatment, read-out: NIC-N87 IC50
[17] = Homo sapiens, NCI-N87, nM given only in VB118 cells, read-out: NCI-N87 (antiproliferative activity, Table 6)
[18] = Homo sapiens, MIA PaCa-2, free, unconjugated, 72 hours of treatment, read-out: Mia-Paca-2 IC50
[19] = Homo sapiens, MIA PaCa-2, nM given only in VB118 cells, read-out: Mia-Paca-2 (antiproliferative activity, Table 6)
[20] = Homo sapiens, K-562R, free, unconjugated, 72 hours of treatment, read-out: K562R IC50
[21] = Homo sapiens, K-562R, nM given only in VB118 cells, read-out: K562R (antiproliferative activity, Table 6)
[22] = resistant cancer cells, MDR profile
[23] = Homo sapiens, SK-OV-3, free, unconjugated, 72 hours of treatment, read-out: SKOV3 IC50
[24] = Homo sapiens, SK-OV-3, nM given only in VB118 cells, read-out: SKOV-3 (antiproliferative activity, Table 6)
[25] = Homo sapiens, SK-BR-3, free, unconjugated, 72 hours of treatment, read-out: SKBr3 IC50
[26] = Homo sapiens, SK-BR-3, nM given only in VB118 cells, read-out: SKBR3 (antiproliferative activity, Table 6)

COc1ccc(N(C)c2cc(C)nc3ccccc23)cc1N [Compound 13b, reference compound]
IC50 [1, 7]: 2.15 nM | IC50 [2, 8]: 0.68 nM | IC50 (NCI-N87 (gastric tumour); [9]): 4.36 nM | IC50 [3, 10]: 0.92 nM | IC50 [4, 11]: 3.59 nM | IC50 (SKOV3 (ovarian tumour); [12]): 1.28 nM | IC50 [5, 13]: 2.17 nM | IC50 (MDA-MB-231 cell line): 3.2 nM

COc1ccc(N(C)c2cc(C#N)nc3ccccc23)cc1N [ICQN-1, 4-((3-amino-4-methoxyphenyl)(methyl)amino) quinoline-2-carbonitrile]
IC50 [1, 7]: 0.23 nM | IC50 ([1]; Homo sapiens, HCT-116, free, unconjugated, 72 hours of treatment, read-out: HCT116 IC50): 0.23 nM | IC50 ratio MMAE/ICQN-1 (fold potency of ICQN-1 over MMAE), HCT116 [1, 14]: 7 | Ratio of activity 13b vs ICQN-1, HCT116 ([1]; ratio versus compound 13b): ~10 | IC50 ratio ICQN-1 vs ICQO-1, HCT-116 [1, 15]: 44 | IC50 [2, 8]: 0.72 nM | IC50 ([2]; Homo sapiens, A549, free, unconjugated, 72 hours of treatment, read-out: A549 IC50): 0.72 nM | Potency ratio of ICQN-1 vs MMAE (MMAE IC50 / ICQN-1 IC50), A549 [2, 14]: 6 | Ratio of activity 13b vs ICQN-1, A549 ([2]; ratio versus compound 13b): 1 | IC50 (NCI-N87 (gastric tumour); [9]): 0.3 nM | IC50 (NCI-N87 (gastric tumour); [16]): 0.3 nM | IC50 (NCI-N87 (gastric tumour); [17]): 0.3 nM | IC50 Ratio ICQN1/MMAE, NCI-N87 (NCI-N87 (gastric tumour); [14]): 22 | Ratio of activity 13b vs ICQN-1, NCI-N87 (NCI-N87 (gastric tumour); ratio versus compound 13b): 15 | IC50 [3, 10]: 0.49 nM | IC50 [3, 18]: 0.49 nM | IC50 [3, 19]: 0.49 nM | IC50 Ratio ICQN1/MMAE, Mia-Paca-2 [3, 14]: 6 | Ratio of activity 13b vs ICQN-1, Mia-Paca2 ([3]; ratio versus compound 13b): 2 | IC50 [4, 11]: 0.47 nM | IC50 [4, 20]: 0.47 nM | IC50 [4, 21]: 0.47 nM | IC50 ([4]; Homo sapiens, K-562R, resistant cancer cells, MDR profile, read-out: K562R (PgP+) IC50): 0.47 nM | Ratio of activity 13b vs ICQN-1, K562R ([4]; ratio versus compound 13b): 8 | Ratio vs ICQO-1, K562R (PgP+) [4, 22]: 4.2 | Ratio vs MMAE, K562R (PgP+) [4, 22]: 74 | IC50 (SKOV3 (ovarian tumour); [12]): 0.44 nM | IC50 (SKOV3 (ovarian tumour); [23]): 0.44 nM | IC50 (SKOV3 (ovarian tumour); [24]): 0.44 nM | Ratio of activity 13b vs ICQN-1, SKOV3 (SKOV3 (ovarian tumour); ratio versus compound 13b): 3 | IC50 ratio ICQN-1 vs ICQO-1, SKOV-3 (SKOV3 (ovarian tumour); [15]): 3 | IC50 [5, 13]: 0.36 nM | IC50 [5, 25]: 0.36 nM | IC50 [5, 26]: 0.36 nM | Ratio of activity 13b vs ICQN-1, SKBr3 ([5]; ratio versus compound 13b): 6 | IC50 (MCF7 (breast tumour); Homo sapiens, MCF7): 0.17 nM | IC50 Ratio ICQN1/MMAE, MCF7 (MCF7 (breast tumour); ratio versus MMAE): 3 | IC50 ([6]; Homo sapiens, MDA-MB-231): 0.34 nM | IC50 Ratio ICQN1/MMAE, MDA-MB231 ([6]; ratio versus MMAE): 4

CN(c1ccc2c(c1)c1ccccc1n2C)c1cc(C#N)nc2ccccc12 [Ib]
drop in cytotoxic activity (factor) on replacing Me by CN at position 2 of quinoline (HCT116 cell line): 170

CCOc1ccc(N(C)c2cc(C#N)nc3ccccc23)cc1N [ICQN-2, 4-((3-amino-4-ethoxyphenyl)(methyl)amino)quinoline-2-carbonitrile]
IC50 (NCI-N87 (gastric tumour); [16]): 0.93 nM | IC50 (NCI-N87 (gastric tumour); [17]): 0.93 nM | IC50 [3, 18]: 0.29 nM | IC50 [3, 19]: 0.29 nM | IC50 [4, 20]: 0.36 nM | IC50 [4, 21]: 0.36 nM | IC50 (SKOV3 (ovarian tumour); [23]): 0.59 nM | IC50 (SKOV3 (ovarian tumour); [24]): 0.59 nM | IC50 [5, 25]: 0.38 nM | IC50 [5, 26]: 0.38 nM

CC[C@H](C)[C@@H]([C@@H](CC(=O)N1CCC[C@H]1[C@H](OC)[C@@H](C)C(=O)N[C@H](C)[C@@H](O)c1ccccc1)OC)N(C)C(=O)[C@@H](NC(=O)[C@@H](NC)C(C)C)C(C)C [MMAE, monomethylauristatin E, reference compound] (H-[NMeV]V[Dil][Dolaproine]-X1)
IC50 ([1]; free, unconjugated, 72 hours of treatment, read-out: HCT116 IC50): 1.52 nM | IC50 ([2]; free, unconjugated, 72 hours of treatment, read-out: A549 IC50): 4.12 nM | IC50 (NCI-N87 (gastric tumour); free, unconjugated, 72 hours of treatment, read-out: NIC-N87 IC50): 6.58 nM | IC50 ([3]; free, unconjugated, 72 hours of treatment, read-out: Mia-Paca-2 IC50): 3.02 nM | IC50 ([4]; free, unconjugated, 72 hours of treatment, read-out: K562R IC50): 19.7 nM | IC50 ([4]; resistant cancer cells, MDR profile, read-out: K562R (PgP+) IC50): 35 nM | IC50 (SKOV3 (ovarian tumour); free, unconjugated, 72 hours of treatment, read-out: SKOV3 IC50): 0.08 nM | IC50 ([5]; free, unconjugated, 72 hours of treatment, read-out: SKBr3 IC50): 0.06 nM | IC50 (MCF7 (breast tumour)): 0.58 nM | IC50 [6]: 1.25 nM
